Measured values as given in ChEMBL document CHEMBL1208785, “Discovery of novel alpha7 nicotinic receptor antagonists” (Bioorg Med Chem Lett, 2010).

Each compound was assayed against Neuronal acetylcholine receptor subunit alpha-7 (Rattus norvegicus) (UniProt Q05941) (assay: Displacement of [125I]alpha-bungarotoxin from alpha7 nicotinic acetylcholine receptor in rat brain membrane at 10 uM).
Assay type: cell membranes

Chain of Neuronal acetylcholine receptor subunit alpha-7 (Rattus norvegicus) (Q05941 whole entry): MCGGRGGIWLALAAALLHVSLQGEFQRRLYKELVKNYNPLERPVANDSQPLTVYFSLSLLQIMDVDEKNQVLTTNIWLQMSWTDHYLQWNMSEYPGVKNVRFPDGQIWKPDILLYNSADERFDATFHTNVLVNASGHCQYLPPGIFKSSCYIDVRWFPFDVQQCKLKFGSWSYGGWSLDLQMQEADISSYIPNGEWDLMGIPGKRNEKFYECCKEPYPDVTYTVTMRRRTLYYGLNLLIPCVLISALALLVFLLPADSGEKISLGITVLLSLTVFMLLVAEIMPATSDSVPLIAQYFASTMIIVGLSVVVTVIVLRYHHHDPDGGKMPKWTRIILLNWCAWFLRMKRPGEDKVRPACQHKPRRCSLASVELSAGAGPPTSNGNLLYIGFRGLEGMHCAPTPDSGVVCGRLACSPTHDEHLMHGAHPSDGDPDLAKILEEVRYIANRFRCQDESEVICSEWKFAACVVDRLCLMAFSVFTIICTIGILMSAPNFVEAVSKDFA

| SMILES | inhibition [%] |
| --- | --- |
| CC(C)CN1CCC(CN(C)C(=O)c2cn(Cc3cc(F)ccc3F)nn2)CC1 | 59.2 |
| Cc1ccccc1Cn1cc(C(=O)NCC2CCN(CCc3ccccc3)CC2)nn1 | 25.2 |
| Cc1c(C(=O)N(C)C2CCN(C)CC2)cnn1-c1ccc(Cl)cc1 | 13.5 |
| CCCc1c(C(=O)NC2CCN(C)CC2)cnn1-c1ccccc1 | 3.1 |
| O=C(NCC1CCN(Cc2ccccc2)CC1)c1cn(Cc2ccc3ccccc3c2)nn1 | 70.5 |
| CC(C)CN1CCC(CN(C)C(=O)c2cn(Cc3ccccc3Cl)nn2)CC1 | 72.3 |
| Cc1ccc(-c2c(C(=O)NC3CCN(C)CC3)cnn2-c2ccccc2)cc1 | 23.4 |
| CN1CCC(N(C)C(=O)c2cnn(-c3ccccc3-c3ccco3)c2C2CC2)CC1 | 10.5 |
| COCCN1CCC(CNC(=O)c2cn(Cc3ccc(Cl)cc3)nn2)CC1 | 27.3 |
| COc1ccc(Cn2cc(C(=O)NCC3CCN(CCc4ccccc4)CC3)nn2)cc1 | 9.5 |
| Cc1ccc(-c2c(C(=O)N(C)C3CCN(C)CC3)cnn2-c2ccccc2)cc1 | 12.1 |
| O=C(NCC1CCN(C2CCCC2)CC1)c1cn(Cc2ccccc2Cl)nn1 | 21.6 |
| Cc1c(C(=O)NC2CCN(Cc3ccccc3)CC2)cnn1-c1ccc(Cl)cc1 | 64.1 |
| O=C(NCC1CCN(CCc2ccccc2)CC1)c1cn(Cc2ccccc2Cl)nn1 | 23.4 |
| Cc1c(C(=O)NC2CCN(Cc3ccccc3)CC2)cnn1-c1ccc(F)cc1 | 50 |
| Cc1c(C(=O)N(C)C2CCN(C)CC2)cnn1-c1ccc(F)cc1 | 11.9 |
| O=C(NCC1CCN(CCc2ccccc2)CC1)c1cn(Cc2ccc(Cl)cc2)nn1 | 18.3 |
| CCCc1c(C(=O)NC2CCNCC2)cnn1-c1ccccc1 | 1 |
| COCCN1CCC(CN(C)C(=O)c2cn(Cc3ccccc3Cl)nn2)CC1 | 43 |
| CCCc1c(C(=O)NC2CCN(Cc3ccccc3)CC2)cnn1-c1ccccc1 | 83.8 |
